# Where “and” joins values, the source holds several entries; their conditions need not be identical. Equal entries are not always repeated. Where two headings read alike, the source gives them in different places.
# How the values were obtained:
# [1] = system: reticulocytes; test: Percentage of reticulocytes among total erythrocytes (bone marrow toxicity), pre-magnetic field analysis
# [2] = Mortality in 28-day 1,3-PS study; type: in vivo, Sprague Dawley rat; conditions: 50 mg/kg/day oral gavage, group of six male rats
# Method: Groups consisting of six male Sprague Dawley rats (7-8 weeks old) were treated on twenty-eight consecutive days (i.e., days 1 through 28) with either water (vehicle), 12.5 mg 1,3-PS per kilogram body weight per day, 25 mg 1,3-PS per kilogram body weight per day, or 50 mg 1,3-PS per kilogram body weight per day via oral gavage. […] Tail vein blood specimens were collected on day −1 (i.e., one day before the start of treatment), and again on days 15, 29, and 42.
# [3] = system: Pig-A mutant phenotype RBCs and RETs; test: Pig-A mutation assay, technical replicates (Example 1): flow cytometric scoring of CD59-negative RBCs/RETs before and after immunomagnetic separation; conditions: 60 mg/kg/day oral gavage days 1-3, blood day 29
# [4] = system: Pig-A mutant phenotype RBCs and RETs; test: Pig-A mutation assay, spiking experiment (Example 2); conditions: blood day 35
# [5] = system: Pig-A mutant phenotype RBCs and RETs
# [6] = calculated from pre- and post-magnetic field ratios, technical replicates, listed as PS
# [7] = post-magnetic field, 4 min acquisition, technical replicates, listed as PS
# [8] = post-magnetic field, technical replicates, listed as PS
# [9] = pre-magnetic field, 3 min acquisition, technical replicates of one rat, listed as PS
# [10] = "100" sample: 40 mg/kg/day 1,3-PS days 1-14, from pre- and post-magnetic field ratios (Table VI), listed as 100
# [11] = "100" sample: 40 mg/kg/day 1,3-PS days 1-14, post-magnetic field, 4 min, listed as 100
# [12] = "100" sample: 40 mg/kg/day 1,3-PS days 1-14, post-magnetic field, listed as 100
# [13] = 28 consecutive days oral gavage, 6 male rats per group, maximum observed on d29
# [14] = 28 consecutive days oral gavage, 6 male rats per group, maximum observed on d42
structure (smiles),measurement,setting,value
"O=S1(=O)CCCO1 [1,3-Propane Sultone, 1,3-propane sultone]",% RET,"[1]; 60 mg/kg/day oral gavage days 1-3, blood day 29, technical replicates, listed as PS",4.02% and 4.08% (2×)
same,% RET versus vehicle (in words),"[1]; 12.5, 25, 50 (reduced to 37.5) mg/kg/day for 28 days, Day 15, FIG. 5A",reduced in a dose-dependent manner
same,% RET,"[1]; ""100"" sample: 40 mg/kg/day 1,3-PS oral gavage days 1-14, blood day 35, listed as 100",5.92% and 5.9%
same,Mortality,[2],one rat in the high dose group died on day 11
same,Frequencies of mutant phenotype RBCs and RETs versus vehicle (in words),[3],clearly led to elevated frequencies of mutant phenotype RBCs and RETs
same,Mutant RBCs per 10^6 Total RBCs,[3]; [6],61.1 per 10^6 Total RBCs and 65.7 per 10^6 Total RBCs and 55 per 10^6 Total RBCs
same,Mutant RETs per 10^6 Total RETs,[3]; [6],22 per 10^6 Total RETs and 16.6 per 10^6 Total RETs and 17.7 per 10^6 Total RETs
same,"Mutant NCEs (events counted), POST-Magnetic Field Analyses",[3]; [7],"6,466 and 7,590 and 7,054"
same,"Mutant RETs (events counted), POST-Magnetic Field Analyses",[3]; [7],95 and 79 and 94
same,"Mutant RBC:Bead Ratio, POST-Magnetic Field Analyses",[3]; [8],0.4138 and 0.4132 (2×)
same,"Mutant RET:Bead Ratio, POST-Magnetic Field Analyses",[3]; [8],0.00599 and 0.00426 and 0.3748
same,"Mutant NCEs (events counted), PRE-Magnetic Field Analyses",[3]; [9],83 and 75 and 64
same,"Mutant RETs (events counted), PRE-Magnetic Field Analyses",[3]; [9],1 (2×) and 2
same,Mutant RBCs per 10^6 Total RBCs,[4]; [10],30 per 10^6 Total RBCs and 34.1 per 10^6 Total RBCs
same,Mutant RETs per 10^6 Total RETs,[4]; [10],25.2 per 10^6 Total RETs and 31.2 per 10^6 Total RETs
same,Mutant RBCs per 10^6 Total RBCs (Post-Column),"[4]; ""100"" sample: 40 mg/kg/day 1,3-PS days 1-14, post-column, avg 112,632,575 RBCs interrogated per sample, listed as 100",30 per 10^6 Total RBCs and 34.1 per 10^6 Total RBCs
same,"Mutant NCEs (events counted), POST-Magnetic Field Analyses",[4]; [11],"3,304 and 3,192"
same,"Mutant RETs (events counted), POST-Magnetic Field Analyses",[4]; [11],173 and 182
same,"Mutant RBC:Bead Ratio, POST-Magnetic Field Analyses",[4]; [12],0.2402 and 0.2497
same,"Mutant RET:Bead Ratio, POST-Magnetic Field Analyses",[4]; [12],0.01195 and 0.01347
same,Mutant RBCs per 10^6 Total RBCs (Pre-Column),"[4]; ""100"" sample: 40 mg/kg/day 1,3-PS days 1-14, pre-column, avg 1,323,693 RBCs interrogated per sample",27 per 10^6 Total RBCs
same,"Mutant NCEs (events counted), PRE-Magnetic Field Analyses","[4]; ""100"" sample: 40 mg/kg/day 1,3-PS days 1-14, pre-magnetic field, 3 min, listed as 100",36 and 31
same,"Mutant RETs (events counted), PRE-Magnetic Field Analyses","[4]; ""100"" sample: blood of rat given 40 mg/kg/day 1,3-PS oral gavage days 1-14, pre-magnetic field, 3 min",1
same,Mutant RBC frequency versus vehicle-treated rats (in words),"[5]; 12.5, 25, 50 (reduced to 37.5) mg/kg/day for 28 days, Day 15 through Day 42, FIG. 5C",significantly higher than those observed in vehicle-treated rats from Day 15 through Day 42
same,Mutant RET frequency versus vehicle controls (in words),"[5]; 12.5, 25, 50 (reduced to 37.5) mg/kg/day for 28 days, days 15, 29, 42, FIG. 5B, Dunnett's t-test p<0.05",each dose group was significantly elevated relative to vehicle controls at every time point studied
same,"Maximum Avg. Mutant Cell Freq., Mutant RETs",[5]; [13],106 Mutant RETs (d29); × 10^−6
same,"Maximum Avg. Mutant Cell Freq., Mutant RBCs",[5]; [14],72 Mutant RBCs (d42) × 10^−6
CC(=O)Nc1ccc2c(c1)Cc1ccccc1-2 [2-Acetylaminofluorene],"Maximum Avg. Mutant Cell Freq., Mutant RBCs",[5]; [13],58 Mutant RBCs (d29) × 10^−6
same,"Maximum Avg. Mutant Cell Freq., Mutant RETs",[5]; [14],50 Mutant RETs (d42); × 10^−6
Cn1cnc([N+](=O)[O-])c1Sc1ncnc2nc[nH]c12 [Azathioprine],"Maximum Avg. Mutant Cell Freq., Mutant RETs","[5]; male, Sprague Dawley, rat, in vivo, po, 29 day",13 Mutant RETs (d29); × 10^−6
same,"Maximum Avg. Mutant Cell Freq., Mutant RBCs","[5]; male, Sprague Dawley, rat, in vivo, po, 42 day",4 Mutant RBCs (d42) × 10^−6
O=C(O)CCCc1ccc(N(CCCl)CCCl)cc1 [Chlorambucil],"Maximum Avg. Mutant Cell Freq., Mutant RBCs",[5]; [14],21 Mutant RBCs (d42) × 10^−6
same,"Maximum Avg. Mutant Cell Freq., Mutant RETs",[5]; [14],40 Mutant RETs (d42); × 10^−6
O=P1(N(CCCl)CCCl)NCCCO1 (stereo not drawn) [Cyclophosphamide],"Maximum Avg. Mutant Cell Freq., Mutant RETs",[5]; [13],5 Mutant RETs (d29); × 10^−6
same,"Maximum Avg. Mutant Cell Freq., Mutant RBCs",[5]; [14],3 Mutant RBCs (d42) × 10^−6
N[C@@H](Cc1ccc(N(CCCl)CCCl)cc1)C(=O)O [Melphalan],"Maximum Avg. Mutant Cell Freq., Mutant RBCs",[5]; [14],23 Mutant RBCs (d42) × 10^−6
same,"Maximum Avg. Mutant Cell Freq., Mutant RETs",[5]; [14],33 Mutant RETs (d42); × 10^−6
S=P(N1CC1)(N1CC1)N1CC1 [Thiotepa],"Maximum Avg. Mutant Cell Freq., Mutant RETs",[5]; [13],79 Mutant RETs (d29); × 10^−6
same,"Maximum Avg. Mutant Cell Freq., Mutant RBCs",[5]; [14],69 Mutant RBCs (d42) × 10^−6
